Earlier results on three molecules are cited in patent US20020028759A1, “Detergent compositions” (Unilever Home & Personal Care USA, Division of Conopco, Inc., priority 1999, published 2002).

Like-named read-outs stand apart in the source and are kept apart here.

The conditions of this data set: 20° C.
Where [1] appears, read: other common materials, by contrast.

For the molecule `O=BO[O-].[Na+]` [Sodium perborate anhydrous], the “Water Solubility (g/100 g)” value under setting [1] is given as 3.7 g/100 g.
`O=P(O)(O)OP(=O)(O)OP(=O)(O)O` [Sodium tripolyphosphate anhydrous]: the “Water Solubility (g/100 g)” value under setting [1] is 15 g/100 g.
In the case of `NC(N)=O` [Urea], the “Water Solubility (g/100 g)” value (highly water-soluble materials) was above 100 g/100 g.
